Measurements as given in publication PMC10192561 (Frontiers in Pharmacology, 2023).
Entries after “also recorded” stand apart in the source; their conditions may differ. Where two headings read alike, the source gives them in different places. Blank lines part the entries; values can stand above or below the compound they belong to.

Tests used:
[1] = parameters: method as in McCarthy et al., 2018; settings: co-administration with isavuconazole; ref McCarthy et al., 2018; cited from earlier work
[2] = tested on: flumatinib metabolism in RLM; assay: Inhibition of flumatinib metabolism in rat liver microsome incubation (UPLC-MS/MS); settings: rat, rat liver microsomes
[3] = molecular target: flumatinib metabolism in HLM (Homo sapiens, UniProt P08684); assay: Inhibition of flumatinib metabolism in human liver microsome incubation (UPLC-MS/MS)
[4] = Pharmacokinetics of flumatinib and M1 in SD rats with or without isavuconazole; format: in vivo, Sprague-Dawley male rats; settings: for AUC(0-inf) / AUC(0-t) / Cmax / Tmax / half-life / CL/F / MRT last / MRT inf: male, Sprague-Dawley, rat, plasma, po, 60 mg/kg; for CL/F: read-out: CLz/F (converted); for MRT last: read-out: MRT0→t; for MRT inf: read-out: MRT0→∞
Description: Quantification of the analytes was made by using a Waters XEVO TQS triple quadruple mass spectrometer with a multiple reaction monitoring (MRM) in positive ion mode. The mobile phase was consisted of 0.1% formic acid aqueous solution (A) and acetonitrile (B) at a flow rate of 0.4 mL/min. An elution program of 90% A (0–0.5 min), 90%–10% A (0.5–1.0 min), 10% A (1–1.5 min), 10%–90% A (1.5–1.6 min) and 90% A (1.6–2 min) was performed. The whole elution took 2 min. During the analysis, the temperature of the column and autosampler rack was controlled at 40°C and 10°C, respectively.
Sprague–Dawley male rats (SD male rats, 200 ± 20 g) were purchased from the Animal Experimental Center of The First Affiliated Hospital of Wenzhou Medical University (Zhejiang, China). […] The rats in both groups started fasting for 12 h ahead of the experiment, but were free to water. […] Tail vein blood samples were collected from rats in both groups at multiple time points (0.67, 1, 1.5, 2, 3, 4, 6, 8, 12, and 24 h). Subsequently, an additional 300 μL acetonitrile and 20 μL dasatinib (200 ng/mL) were added to 100 μL plasma. Then the mixture was vortexed to mix thoroughly for 2 min and centrifuged at 13,000 rpm for 10 min to obtain the final supernatant for UPLC-MS/MS analysis.
IC50 and enzyme kinetic parameters were obtained using GraphPad Prism 8.0 software (GraphPad software Inc., CA, United States). Non-compartmental analysis was performed by using Drugs and Statistics (DAS) software (version 3.0 software, Shanghai University of Traditional Chinese Medicine, China) to obtain pharmacokinetic profiles. Mean plasma concentration-time curves were generated using Origin 8.0, and the parameters were statistically investigated between groups using independent samples t-test by SPSS 24.0 software (SPSS Inc., Chicago, IL, United States). All data were expressed as mean ± SD and p < 0.05 was considered statistically significant.

[5] = tested on: rat liver microsomes (RLM); assay: Inhibition of flumatinib metabolism in rat liver microsome incubation (UPLC-MS/MS); settings: flumatinib metabolism in RLM
[6] = molecular target: flumatinib metabolism in HLM (CYP3A4; ketoconazole as positive control) (Homo sapiens, UniProt P08684); assay: Inhibition of flumatinib metabolism in human liver microsome incubation (UPLC-MS/MS); settings: human liver microsomes, probe flumatinib […] (at Km)
[7] = molecular target: recombinant human CYP3A4 (rCYP3A4) (Homo sapiens, UniProt P08684); assay: Inhibition of flumatinib metabolism in recombinant human CYP3A4 incubation (UPLC-MS/MS)
[8] = tested on: rat liver microsomes (RLM); assay: Michaelis-Menten kinetics of flumatinib metabolism in RLM; format: in vitro ADME; settings: flumatinib as substrate, RLM 0.4 mg/mL
Description: An in vitro liver microsome incubation system was set up, then the drug was added to the system and incubated for […] as to determine the metabolism of the drug by the microsomes. […] The NADPH-free mixture was preincubated at 37°C for 5 min, followed by the addition of 1 mM NADPH to activate the reaction. The mixture was incubated at 37 °C for 40 min until 20 μL of IS solution (200 ng/mL) and 400 μL of cool acetonitrile were added. It was then centrifuged at 13,000 rpm for 5 min. After that, 100 μL of the supernatant was taken to conduct the analysis by UPLC-MS/MS.

[9] = probe flumatinib (2.17 µM in RLM, at Km)
[10] = group A: 60 mg/kg flumatinib dosed orally alone
[11] = group B: 20 mg/kg isavuconazole and 60 mg/kg flumatinib dosed orally
[12] = with 20 mg/kg isavuconazole vs flumatinib alone

recombinant human CYP3A4 (rCYP3A4), sequence (P08684 whole entry): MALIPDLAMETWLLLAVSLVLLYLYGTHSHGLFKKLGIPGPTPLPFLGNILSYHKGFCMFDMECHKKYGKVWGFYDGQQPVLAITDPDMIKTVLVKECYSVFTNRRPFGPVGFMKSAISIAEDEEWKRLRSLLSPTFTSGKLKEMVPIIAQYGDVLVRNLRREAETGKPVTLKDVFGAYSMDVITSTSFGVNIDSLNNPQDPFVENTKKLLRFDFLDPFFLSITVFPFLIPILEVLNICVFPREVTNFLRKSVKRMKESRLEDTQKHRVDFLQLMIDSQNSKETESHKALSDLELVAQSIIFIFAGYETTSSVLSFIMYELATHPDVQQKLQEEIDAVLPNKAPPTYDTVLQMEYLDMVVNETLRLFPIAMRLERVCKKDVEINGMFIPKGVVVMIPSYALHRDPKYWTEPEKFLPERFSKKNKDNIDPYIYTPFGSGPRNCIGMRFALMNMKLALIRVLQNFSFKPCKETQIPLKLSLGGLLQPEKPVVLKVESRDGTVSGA
flumatinib metabolism in HLM, sequence (P08684 2-503): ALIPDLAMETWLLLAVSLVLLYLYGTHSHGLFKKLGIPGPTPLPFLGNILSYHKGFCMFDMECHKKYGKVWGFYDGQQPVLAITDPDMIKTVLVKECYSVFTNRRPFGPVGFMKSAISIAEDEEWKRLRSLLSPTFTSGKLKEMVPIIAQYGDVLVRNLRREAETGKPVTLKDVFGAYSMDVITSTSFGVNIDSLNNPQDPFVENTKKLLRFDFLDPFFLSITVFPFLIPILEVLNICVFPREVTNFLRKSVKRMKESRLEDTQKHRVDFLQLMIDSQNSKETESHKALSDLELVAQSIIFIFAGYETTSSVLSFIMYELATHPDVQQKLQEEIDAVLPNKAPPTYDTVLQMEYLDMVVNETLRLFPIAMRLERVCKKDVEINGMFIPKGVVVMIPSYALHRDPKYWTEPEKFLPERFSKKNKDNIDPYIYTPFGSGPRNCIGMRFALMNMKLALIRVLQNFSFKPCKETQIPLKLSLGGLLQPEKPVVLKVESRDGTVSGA
flumatinib metabolism in HLM (CYP3A4; ketoconazole as positive control), sequence (P08684 2-503): as above

IC50 at 40 min [2, 9]: 1.53 µM | IC50 at 40 min ([3]; human liver microsomes, probe flumatinib ([…] in HLM, at Km)): 1.72 µM
Compound: CC[C@@H]([C@H](C)O)n1ncn(-c2ccc(N3CCN(c4ccc(OC[C@@H]5CO[C@@](Cn6cncn6)(c6ccc(F)cc6F)C5)cc4)CC3)cc2)c1=O [posaconazole]

Ki [5]: 0.33 µM
Compound: CC(=O)N1CCN(c2ccc(OCC3COC(Cn4ccnc4)(c4ccc(Cl)cc4Cl)O3)cc2)CC1 (stereo not drawn) [ketoconazole]
Inhibition type [5]: mixed inhibitory mechanisms; also recorded: Mixed inhibition

IC50 at 40 min ([2]; probe flumatinib 2.17 µM (at Km)): 0.62 µM | Ki [5]: 1.44 µM | IC50 at 40 min [6]: 6.66 µM | α [7]: 0.71
Compound: C[C@@H](c1nc(-c2ccc(C#N)cc2)cs1)[C@](O)(Cn1cncn1)c1cc(F)ccc1F [isavuconazole]
Inhibition type [5]: mixed inhibitory mechanisms; also recorded: mixed type; also recorded: a mixture of competitive and non-competitive inhibition; also recorded: Mixed inhibition | α [5]: 0.52 | Inhibition type [7]: mixed inhibitory mechanisms; also recorded: mixed type; also recorded: a mixture of competitive and non-competitive inhibition; also recorded: Mixed inhibition

Second part, the compound before the results:

Compound: CO[C@H]1C[C@@H]2CC[C@@H](C)[C@@](O)(O2)C(=O)C(=O)N2CCCC[C@H]2C(=O)O[C@H]([C@H](C)C[C@@H]2CC[C@@H](O)[C@H](OC)C2)CC(=O)[C@H](C)/C=C(\C)[C@@H](O)[C@@H](OC)C(=O)[C@H](C)C[C@H](C)/C=C/C=C/C=C/1C [sirolimus]
AUC increase when combined with isavuconazole [1]: 84%

Compound: C=CC[C@@H]1/C=C(\C)C[C@H](C)C[C@H](OC)[C@H]2O[C@@](O)(C(=O)C(=O)N3CCCC[C@H]3C(=O)O[C@H](/C(C)=C/[C@@H]3CC[C@@H](O)[C@H](OC)C3)[C@H](C)[C@@H](O)CC1=O)[C@H](C)C[C@@H]2OC [tacrolimus]
AUC increase when combined with isavuconazole [1]: 125%

Compound: OC(Cn1cncn1)(Cn1cncn1)c1ccc(F)cc1F [fluconazole]
IC50 at 40 min [2, 9]: 24.8 µM | IC50 at 40 min [3]: 92.6 µM

Compound: CCC(C)n1ncn(-c2ccc(N3CCN(c4ccc(OCC5COC(Cn6cncn6)(c6ccc(Cl)cc6Cl)O5)cc4)CC3)cc2)c1=O (stereo not drawn) [itraconazole]
IC50 at 40 min [2, 9]: 1.06 µM | IC50 at 40 min [3]: 11.6 µM

Compound: Cc1ncc(NC(=O)c2ccc(CN3CCNCC3)c(C(F)(F)F)c2)cc1Nc1nccc(-c2cccnc2)n1 [M1, N-desmethyl flumatinib]
effect of isavuconazole on pharmacokinetic parameters of the metabolite ([4]; combination vs control group): no effect; also recorded: No statistical significances | AUC(0-inf) [4, 10]: 314 ± 134 ng·h/mL | AUC(0-t) [4, 10]: 282 ± 135 ng·h/mL | Cmax [4, 10]: 19.9 ± 32.8 ng/mL | Tmax [4, 10]: 2.6 ± 1.14 h | half-life [4, 10]: 5.28 ± 1.24 h | CL/F [4, 10]: 3940 mL/min/kg | MRT last [4, 10]: 6.73 ± 1.68 h | MRT inf [4, 10]: 8.86 ± 1.39 h | AUC(0-inf) [4, 11]: 395 ± 63.1 ng·h/mL | AUC(0-t) [4, 11]: 352 ± 49.8 ng·h/mL | Cmax [4, 11]: 31.9 ± 3.98 ng/mL | Tmax [4, 11]: 5 ± 2.45 h | half-life [4, 11]: 7.29 ± 2.01 h | CL/F [4, 11]: 2580 mL/min/kg | MRT last [4, 11]: 8.2 ± 0.19 h | MRT inf [4, 11]: 11.2 ± 1.53 h

Compound: C[C@@H](c1ncncc1F)[C@](O)(Cn1cncn1)c1ccc(F)cc1F [voriconazole]
IC50 at 40 min [2, 9]: 12.4 µM | IC50 at 40 min [3]: 325 µM

Compound: Cc1ncc(NC(=O)c2ccc(CN3CCN(C)CC3)c(C(F)(F)F)c2)cc1Nc1nccc(-c2cccnc2)n1 [flumatinib]
Km [8]: 2.2 µM | AUC(0-inf) [4, 10]: 3040 ± 664 ng·h/mL | AUC(0-t) [4, 10]: 2750 ± 887 ng·h/mL | Cmax [4, 10]: 282 ± 36.8 ng/mL | Tmax [4, 10]: 6 ± 2.74 h | half-life [4, 10]: 4.04 ± 2.65 h | CL/F [4, 10]: 340 mL/min/kg | MRT last [4, 10]: 6.82 ± 1.94 h | MRT inf [4, 10]: 7.66 ± 2.01 h | AUC(0-inf) [4, 11]: 5710 ± 744 ng·h/mL | AUC(0-t) [4, 11]: 4730 ± 1290 ng·h/mL | Cmax [4, 11]: 481 ± 33.3 ng/mL | Tmax [4, 11]: 4.4 ± 1.52 h | half-life [4, 11]: 4.88 ± 2.91 h | CL/F [4, 11]: 177 mL/min/kg | MRT last [4, 11]: 6.87 ± 1.33 h | MRT inf [4, 11]: 9.2 ± 3.59 h | AUC(0–t), group B relative to group A [4, 12]: 1.72 fold | AUC(0–∞), group B relative to group A [4, 12]: 1.88 fold | CLz/F lower than group A [4, 12]: 48% | Cmax, group B relative to group A [4, 12]: 1.70 fold
